Assay in all cases: inhibition of tumour cell growth, NCI panel, 48 h
Experiment [1] concerns UACC-62 melanoma.
The test system of experiment [2] is OVCAR-4 ovarian.
Experiment [3] concerns NCI/ADR-RES ovarian.
Experiment [4] deals with T-47D breast.
For experiment [5], the system named is IGROV1 ovarian.
Experiment [6] relates to TK-10 renal.
The subject of experiment [7] is SK-MEL-28 melanoma.
Experiment [8] concerns K-562 leukemia.
Experiment [9] has as its system UACC-257 melanoma.
Experiment [10] deals with KM12 colon.
The test system of experiment [11] is SNB-19 CNS.
For experiment [12], the system named is RXF 393 renal.
Experiment [13] has as its system M14 melanoma.
In experiment [14] the test system is U251 CNS.
For experiment [15], the system named is HOP-62 NSCLC.
Experiment [16] deals with HOP-92 NSCLC.

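Method: 48-hour compound exposure of cells in 96-well plates, five concentrations, linear interpolation of endpoints. TGI: total growth inhibition.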

With `CN(C)Cc1cc(C(C)(C)C)cc(C2CCCCC2)c1O`, the TGI in experiment [1] came to 29.8 µM; in experiment [2], 24.4 µM; in experiment [3], 44.4 µM; in [4] it was 21.6 µM; in experiment [5], 34.8 µM; in experiment [6] it was 29.1 µM. The TGI in [7] turned out to be 26.3 µM; in experiment [8], 24.5 µM; in experiment [9], 21.8 µM; in experiment [10] it was 26.4 µM; in [11], 25.6 µM; in experiment [12], 26.4 µM. For the same compound, the values for the TGI in experiment [13], in experiment [14] and in experiment [15] were above 100 µM, 27.4 µM and 40 µM, respectively.
On to `Cc1cccc2c(=O)c3cccc([C@@H](C)C(=O)O)c3oc12`, for which the TGI in experiment [2], in experiment [3], in experiment [4], in [5], in [6] and in experiment [7] was above 100 µM each time. The TGI in [8], in experiment [9], in experiment [10], in experiment [16], in experiment [11] and in experiment [13] was above 100 µM throughout. Moreover, the TGI in experiment [14] and in [15] was above 100 µM throughout.
`CCOP(=O)(OCC)/C(C#N)=C/c1ccnc2ccccc12`: the TGI in experiment [1] is 61.4 µM; in [2] it was above 100 µM; in experiment [3], above 100 µM; in [4], above 100 µM; in experiment [5], above 100 µM; in experiment [6], above 100 µM. The TGI in [7] was above 100 µM; in [9], above 100 µM; in experiment [10], 91.3 µM; in experiment [16], 43.7 µM; in experiment [11], 57.5 µM; in experiment [12], 79.1 µM. The TGI is 47.6 µM in experiment [13], above 100 µM in experiment [14] and above 100 µM in experiment [15].
In the case of `CC(=O)c1cc(C)n2c1CS[C@@H]2c1ccccc1`, the TGI in experiment [2], in experiment [3], in [4], in experiment [5], in [6] and in experiment [7] was above 100 µM each time. Also, the TGI in experiment [8] is above 100 µM; in experiment [9], above 100 µM; in experiment [10], above 100 µM; in [16] it was above 100 µM; in [11], above 100 µM; in [12] it was 91.6 µM. Besides, the TGI in experiment [13] was above 100 µM; in experiment [14], 92.7 µM; in experiment [15], above 100 µM.
For `Cc1ncc([N+](=O)[O-])n1CCNC(=O)Cn1c([N+](=O)[O-])cnc1C`, the TGI in experiment [1], in experiment [3], in experiment [4], in experiment [5], in experiment [6] and in experiment [7] was above 100 µM throughout. For the same compound, the TGI in experiment [8], in experiment [9], in experiment [10], in experiment [11], in [13] and in experiment [14] was above 100 µM in each case. In addition, the TGI in experiment [15] is above 100 µM.
On to `O=C(/C=C(\O)c1ccccc1)c1cc(-c2ccccc2)n(-c2ccccc2)n1`, for which the TGI in [1] was 13.4 µM; in experiment [3], above 100 µM; in [4], 37.9 µM; in experiment [5], 79.9 µM; in experiment [6], above 100 µM; in experiment [8], above 100 µM. Further, the TGI in experiment [9] is above 100 µM; in experiment [10], above 100 µM; in experiment [11], above 100 µM; in experiment [12] it was above 100 µM; in [13], 55.7 µM; in [14], 62.6 µM. This compound also yielded a TGI in [15] of 23.9 µM.
Take `COCCOC(=O)C(C)=[N+]=[N-]`: the TGI in experiment [1], in experiment [2], in [3], in experiment [4], in experiment [5] and in experiment [6] was above 100 µM in each case. Also, the TGI in [7], in [8], in experiment [9], in experiment [10], in experiment [11] and in [12] was above 100 µM throughout. The TGI in experiment [14] and in experiment [15] was above 100 µM each time.
Take `CCc1n[nH]c(=O)n1CCO`: the TGI in [1], in experiment [2], in experiment [3], in experiment [4], in [5] and in experiment [6] was above 100 µM throughout. Further, the TGI in [7], in [8], in experiment [9], in [10], in [16] and in experiment [11] was above 100 µM each time. Besides, the TGI in [13] and in [14] was above 100 µM each time.
Consider `CC1OC(OC2C(Oc3cc(O)c4c(c3)O[C@H](c3ccc(O)cc3)CC4=O)OC(CO)C(O)C2O)C(O)C(O)C1O` (some centres not stated), for which the TGI in [1], in experiment [2], in [3], in experiment [4], in [5] and in experiment [6] was above 100 µM in each case. In addition, the TGI in [7], in experiment [9], in experiment [10], in experiment [16], in experiment [12] and in [13] was above 100 µM each time. The TGI in experiment [14] and in experiment [15] was above 100 µM throughout.
As for `O=C(NNC(=O)c1ccccc1O)c1ccc(O)cc1`, the TGI was above 100 µM in [1]; above 100 µM in experiment [2]; 90.9 µM in experiment [3]; above 100 µM in experiment [4]; above 100 µM in experiment [5]; above 100 µM in experiment [6]. In addition, the TGI in experiment [7], in [8], in [9], in experiment [10], in [11] and in [12] was above 100 µM throughout. The TGI in experiment [13], in experiment [14] and in [15] was above 100 µM in each case.
